Assay results as given in patent EP1658844A1, “Use of artemisinin derivatives in the manufacture of a medicament for the treatment of melanoma” (Schuler, Gerold, priority 2004, dated 2006).

What was measured:
[1] = tested on: metastatic uveal melanoma
Protocol: In the experimental examples below, standard techniques of therapeutical agent administration were used. […] Artesunate was provided by Sanofi Synthelabo, France.
The clinical course of the disease and the treatment modalities are depicted in detail in Figure 1. […] A chemotherapy with Dacarbazin (DTIC) was initiated at a concentration of 850 mg per m^2 body surface.
The clinical course of the disease and the treatment modalities are depicted in detail in Figure 2. […] A chemotherapy with DTIC at a concentration of 850 mg per m^2 body surface was initiated. […] In addition, the patient received an iron medication (three times daily ferroglycine sulfate equivalent to 40 mg Fe^2+) to potentially increase the efficacy of ART.

nucleic acid synthesis = details: cited from earlier work
P388 leukemia = details: NCI report on NSC 369397; cited from earlier work
[2] = tested on: cell line panels consisting of 60 lines; details: 60 cell lines in nine disease-related subpanels; cited from earlier work
tumor = details: combination treatment with ferrous sulfate, three dog studies; cited from earlier work
uveal melanoma = details: largest prospective trial, metastatic uveal melanoma; cited from earlier work
[3] = within the group of artemisinin analogs; cited from earlier work

With C[C@H]1[C@H](OC(=O)CCC(=O)O)O[C@@H]2O[C@@]3(C)CC[C@H]4[C@H](C)CC[C@@H]1[C@@]24OO3 [ART, (3R,5aS,6R,8aS,9R,10S,12R,12aR)-Decahydro-3,6,9-trimethyl-3,12-epoxy-12H-pyrano[4,3-j]1,2-benzodioxepin-10-ol,hydrogen succinate] the “side effects throughout the combination therapy” value ([1]; human, in vivo) was “no additional side effects”, the “toxicity of ART-treatment” value ([1]; human, in vivo) was “without measurable toxicity” and the “survival after start of the ART/Fotemustine therapy” value ([1]; patient 1) was 11 months. The “response at first staging” value ([1]; patient 1, ART 2 times daily 50 mg p.o. in combination with Fotemustine, three months after initiation) was “mixed response”, the “time to death after entry into stage IV according to AJCC” value ([1]; patient 1, DTIC, then Fotemustine, then ART plus chemotherapy) was 23 months and the “survival (still alive) after initiation of ART/DTIC-therapy” value ([1]; patient 2) was at least 37 months. The response ([1]; patient 2, 50 mg ART twice daily p.o. with DTIC and ferroglycine sulfate, after 21 courses of DTIC, the last 11 with ART) was “objective response”, the “survival (still alive) after first diagnosis of stage IV uveal melanoma” value ([1]; patient 2, ART added to Dacarbazin) was at least 37 months and the “activity relative to artemisinin in ability to inhibit nucleic acid synthesis” value (nucleic acid synthesis) was 100 times.

In the case of C[C@@H]1CC[C@H]2[C@@H](C)C(=O)O[C@@H]3O[C@@]4(C)CC[C@@H]1[C@]32OO4 [Artemisinin], the “activity against P388 leukemia” value (P388 leukemia) is given as “inactive”, the anticancer activity [2] is given as “very little anticancer activity” and the tumor size (tumor) is given as “reduction of tumor size”.

For CCOP(=O)(OCC)C(C)NC(=O)N(CCCl)N=O (stereo not drawn) [Fotemustine], the “complete responses (CR)” value (uveal melanoma) is given as “one CR in 48 patients”.

For CCO[C@H]1O[C@@H]2O[C@@]3(C)CC[C@H]4[C@H](C)CC[C@@H]([C@H]1C)[C@@]24OO3 [arteether], the “activity relative to artemisinin in ability to inhibit nucleic acid synthesis” value (nucleic acid synthesis) is given as 100 times.

For C[C@H]1[C@@H](OCc2ccc(C(=O)O)cc2)O[C@@H]2O[C@@]3(C)CC[C@H]4[C@H](C)CC[C@@H]1[C@@]24OO3 [artelinic acid], the “activity relative to artemisinin in ability to inhibit nucleic acid synthesis” value (nucleic acid synthesis) is listed as 100 times, the stability [3] is listed as “most stable” and the water solubility [3] is listed as “most water soluble”.

For CCCOC(=O)OC1O[C@@H]2O[C@@]3(C)CC[C@H]4[C@H](C)CC[C@@H]([C@H]1C)[C@@]24OO3 (stereo partly drawn) [propylcarbonate dihydroartemisinin], the “activity relative to artemisinin in ability to inhibit nucleic acid synthesis” value (nucleic acid synthesis) is given as 100 times.
